Values quoted from earlier work as cited in US8759098B2, “Method for cloning pluripotent stem cells” (Boston Biomedical Research Institute, Inc., priority 2009, dated 2014).

Test system: human adult tissue
Conditions: used singly and in combination; Lin et al. 2009; cited from earlier work

Row | Structure (SMILES) | efficiency of creating stem cells from human adult tissue
1 | NC(=O)c1ccc(-c2nc(-c3ccccn3)c(-c3ccc4c(c3)OCO4)[nH]2)cc1 [SB43142] | dramatically improve the efficiency
2 | O=C(NOC[C@H](O)CO)c1ccc(F)c(F)c1Nc1ccc(I)cc1F [PD0325901] | dramatically improve the efficiency
